Experimental data from patent US7375058B2, “Herbicidal mixtures based on 3-phenyluracils” (priority 2002, dated 2008).
Structures can show the parent of a compound that is named as a salt.

Legend:
[1] = tested on: GALAP; assay: Greenhouse post-emergence herbicidal action against GALAP; assay type: in vivo, Galium aparine
Description: (§1) For the post-emergence treatment, the test plants were first grown to a height of 3 to 20 cm, depending on the plant habit, and only then treated. Here, the herbicidal compositions were suspended or emulsified in water as distribution medium and sprayed using finely distributing nozzles
(§2) The respective components A and B and/or C were formulated as 10% by weight strength emulsion concentrate and introduced to the spray liquor with the amount of solvent system used for applying the active compound. In the examples, the solvent used was water.
(§3) The test period extended over 21 days. During this time, the plants were tended, and their response to the treatments with active compound was evaluated.
(§4) The evaluation for the damage caused by the chemical compositions was carried out using a scale from 0 to 100%, compared to the untreated control plants. Here, 0 means no damage and 100 means complete destruction of the plants.
(§5) In the examples below, the value E which is to be expected if the activity of the individual compounds is just additive was calculated using the method of S. R. Colby (1967) “Calculating synergistic and antagonistic responses of herbicide combinations”, Weeds 15, p. 22 ff. E=X+Y−([…]) where • X=effect in percent using active compound A at an application rate a; • Y=effect in percent using active compound B at an application rate b; • E=expected effect (in %) of A+B at application rates a+b.
(§6) If the observed effect is higher than the value E calculated according to Colby, a synergistic effect is present.

[2] = tested on: ABUTH; assay: Greenhouse post-emergence herbicidal action against ABUTH; assay type: in vivo, Abutilon theophrasti
Description: as §1, §2, §3, §4, §5, §6

[3] = tested on: ALOMY; assay: Greenhouse post-emergence herbicidal action against ALOMY; assay type: in vivo, Alopecurus myosuroides; conditions: 21 days
Description: as §1, §2, §3, §4, §5, §6

[4] = tested on: BIDPI; assay: Greenhouse post-emergence herbicidal action against BIDPI; assay type: in vivo, Bidens pilosa
Description: as §1, §2, §3, §4, §5, §6

[5] = tested on: BRAPL; assay: Greenhouse post-emergence herbicidal action against BRAPL; assay type: in vivo, Brachiaria plantaginea
Description: as §1, §2, §3, §4, §5, §6

[6] = tested on: AVEFA; assay: Greenhouse post-emergence herbicidal action against AVEFA; assay type: in vivo, Avena fatua
Description: as §1, §2, §3, §4, §5, §6

[7] = tested on: POLPE; assay: Greenhouse post-emergence herbicidal action against POLPE; assay type: in vivo, Polygonum persicaria; conditions: 21 days
Description: as §1, §2, §3, §4, §5, §6

[8] = tested on: ECHCG; assay: Greenhouse post-emergence herbicidal action against ECHCG; assay type: in vivo, Echinochloa crus-galli
Description: as §1, §2, §3, §4, §5, §6

[9] = tested on: SETFA; assay: Greenhouse post-emergence herbicidal action against SETFA; assay type: in vivo, Setaria faberii
Description: as §1, §2, §3, §4, §5, §6

[10] = 21 days, application rate g/ha: I.7 1.95, b3.2 62.5
[11] = 21 days, application rate g/ha: I.7 3.91, b3.2 125
[12] = I.1 1.95 g/ha and/or b10.1 125 g/ha
[13] = I.1 3.91 g/ha and/or b10.1 250 g/ha
[14] = I.14 0.49 g/ha and/or b10.3 62.5 g/ha
[15] = I.14 0.98 g/ha and/or b10.3 125 g/ha
[16] = I.14 0.49 g/ha and/or b11.1 62.5 g/ha
[17] = I.14 0.98 g/ha and/or b11.1 125 g/ha
[18] = I.14 0.49 g/ha and/or b13.3 62.5 g/ha
[19] = I.14 0.98 g/ha and/or b13.3 125 g/ha

CCO/N=C(\CC)C1=C(O)CC(c2c(C)cc(C)cc2C)CC1=O (stereo not drawn) [b1.1, tralkoxydim, reference compound]
Herbicidal action against GALAP found ([1]; 21 days, application rate g/ha: I.1 1.95, b1.1 62.5): 0%
Herbicidal action against GALAP found ([1]; 21 days, application rate g/ha: I.1 3.91, b1.1 125): 0%

CCCC(=NOCC(C)Oc1ccc(Cl)cc1)C1=C(O)CC(C2CCCSC2)CC1=O (stereo not drawn) [b1.2, profoxydim, reference compound]
Herbicidal action against ABUTH found ([2]; 21 days, application rate g/ha: I.1 1.95, b1.2 31.25): 30%
Herbicidal action against ABUTH found ([2]; 21 days, application rate g/ha: I.1 3.91, b1.2 62.5): 40%

COCc1cnc(C2=NC(C)(C(C)C)C(=O)N2)c(C(=O)O)c1 (stereo not drawn) [b2.1, imazamox, reference compound]
Herbicidal action against ALOMY found ([3]; application rate g/ha: I.8 0.49, b2.1 7.81): 40%
Herbicidal action against ALOMY found ([3]; application rate g/ha: I.8 0.98, b2.1 15.63): 70%

CCc1cnc(C2=NC(C)(C(C)C)C(=O)N2)c(C(=O)O)c1 (stereo not drawn) [b2.2, imazethapyr, reference compound]
Herbicidal action against BIDPI found ([4]; 21 days, application rate g/ha: I.8 0.49, b2.2 7.81): 20%
Herbicidal action against BIDPI found ([4]; 21 days, application rate g/ha: I.8 0.98, b2.2 15.63): 20%

COc1cc(OC)nc(NC(=O)NS(=O)(=O)c2ncccc2C(=O)N(C)C)n1 [b2.3, nicosulfuron, reference compound]
Herbicidal action against ALOMY found ([3]; application rate g/ha: I.14 0.49, b2.3 0.98): 50%
Herbicidal action against ALOMY found ([3]; application rate g/ha: I.14 0.98, b2.3 1.95): 60%
Herbicidal action against BRAPL found ([5]; 21 days, application rate g/ha: I.14 0.49, b2.3 0.98): 70%
Herbicidal action against BRAPL found ([5]; 21 days, application rate g/ha: I.14 0.98, b2.3 1.95): 70%

CCNc1nc(Cl)nc(NC(C)C)n1 [b3.1, atrazine, reference compound]
Herbicidal action against AVEFA found ([6]; 21 days, application rate g/ha: I.7 1.95, b3.1 62.5): 0%
Herbicidal action against AVEFA found ([6]; 21 days, application rate g/ha: I.7 3.91, b3.1 125): 0%
Herbicidal action against POLPE found ([7]; application rate g/ha: I.7 1.95, b3.1 62.5): 50%
Herbicidal action against POLPE found ([7]; application rate g/ha: I.7 3.91, b3.1 125): 60%

CN(C)C(=O)Nc1ccc(Cl)c(Cl)c1 [b3.2, diuron, reference compound]
Herbicidal action against BRAPL found [5, 10]: 25%
Herbicidal action against BRAPL found [5, 11]: 60%
Herbicidal action against ECHCG found [8, 10]: 15%
Herbicidal action against ECHCG found [8, 11]: 20%

CC(C)c1ccc(NC(=O)N(C)C)cc1 [b3.3, isoproturon, reference compound]
Herbicidal action against ABUTH found ([2]; 21 days, application rate g/ha: I.7 0.98, b3.3 31.25): 0%
Herbicidal action against ABUTH found ([2]; 21 days, application rate g/ha: I.7 1.95, b3.3 62.5): 40%

C[n+]1ccc(-c2cc[n+](C)cc2)cc1 [b3.4, paraquat, reference compound]
Herbicidal action against ABUTH found ([2]; 21 days, application rate g/ha: I.7 0.98, b3.4 31.25): 0%
Herbicidal action against ABUTH found ([2]; 21 days, application rate g/ha: I.7 1.95, b3.4 62.5): 40%

CCOC(=O)/C(Cl)=C/c1cc(N2C(=O)C3=C(CCCC3)C2=O)ccc1Cl [b4.1, cinidon-ethyl, reference compound]
Herbicidal action against POLPE found ([7]; application rate g/ha: I.1 0.49, b4.1 0.98): 40%
Herbicidal action against POLPE found ([7]; application rate g/ha: I.1 0.98, b4.1 1.95): 50%

O=C(Nc1ccc(F)cc1)c1cccc(Oc2cccc(C(F)(F)F)c2)n1 [b5.1, picolinafen, reference compound]
Herbicidal action against POLPE found ([7]; application rate g/ha: I.8 0.98, b5.1 7.81): 30%
Herbicidal action against POLPE found ([7]; application rate g/ha: I.8 1.95, b5.1 15.63): 40%
Herbicidal action against BRAPL found ([5]; 21 days, application rate g/ha: I.8 0.98, b5.1 7.81): 20%
Herbicidal action against BRAPL found ([5]; 21 days, application rate g/ha: I.8 1.95, b5.1 15.63): 20%

CS(=O)(=O)c1ccc(C(=O)C2C(=O)CCCC2=O)c(Cl)c1 [b5.2, sulcotrione, reference compound]
Herbicidal action against ECHCG found ([8]; 21 days, application rate g/ha: I.8 1.95, b5.2 31.25): 60%
Herbicidal action against ECHCG found ([8]; 21 days, application rate g/ha: I.8 3.91, b5.2 62.5): 75%

CC(C)N.O=C(O)CNCP(=O)(O)O [b6.1, glyphosate isopropylammonium salt, reference compound]
Herbicidal action against AVEFA found ([6]; 21 days, application rate g/ha: I.7 1.95, b6.1 125): 0%
Herbicidal action against AVEFA found ([6]; 21 days, application rate g/ha: I.7 3.91, b6.1 250): 0%

CP(=O)(O)CCC(N)C(=O)O (stereo not drawn) [b7.1, glufosinate ammonium salt, reference compound]
Herbicidal action against AVEFA found ([6]; 21 days, application rate g/ha: I.7 1.95, b7.1 250): 0%
Herbicidal action against AVEFA found ([6]; 21 days, application rate g/ha: I.7 3.91, b7.1 500): 20%
Herbicidal action against POLPE found ([7]; application rate g/ha: I.7 1.95, b7.1 250): 0%
Herbicidal action against POLPE found ([7]; application rate g/ha: I.7 3.91, b7.1 500): 30%

CCC(CC)Nc1c([N+](=O)[O-])cc(C)c(C)c1[N+](=O)[O-] [b9.1, pendimethalin, reference compound]
Herbicidal action against AVEFA found ([6]; 21 days, application rate g/ha: I.1 0.98, b9.1 125): 10%
Herbicidal action against AVEFA found ([6]; 21 days, application rate g/ha: I.1 1.95, b9.1 250): 20%

COC[C@H](C)N(C(=O)CCl)c1c(C)csc1C [b10.1, dimethenamid-P, reference compound]
Herbicidal action against BIDPI found [4, 12]: 25%
Herbicidal action against BIDPI found [4, 13]: 25%
Herbicidal action against AVEFA found [6, 12]: 30%
Herbicidal action against AVEFA found [6, 13]: 30%

CCOCN(C(=O)CCl)c1c(C)cccc1CC [b10.2, acetochlor, reference compound]
Herbicidal action against BIDPI found ([4]; 21 days, application rate g/ha: I.14 1.95, b10.2 250): 30%
Herbicidal action against BIDPI found ([4]; 21 days, application rate g/ha: I.14 3.91, b10.2 500): 70%

CCc1cccc(C)c1N(C(=O)CCl)[C@@H](C)COC [b10.3, S-metolachlor, reference compound]
Herbicidal action against GALAP found [1, 14]: 0%
Herbicidal action against GALAP found [1, 15]: 25%
Herbicidal action against SETFA found [9, 14]: 30%
Herbicidal action against SETFA found [9, 15]: 60%

CCC(C)(CC)c1cc(NC(=O)c2c(OC)cccc2OC)on1 [b11.1, isoxaben, reference compound]
Herbicidal action against GALAP found [1, 16]: 0%
Herbicidal action against GALAP found [1, 17]: 0%
Herbicidal action against SETFA found [9, 16]: 0%
Herbicidal action against SETFA found [9, 17]: 10%

COc1c(Cl)ccc(Cl)c1C(=O)O [b13.2, dicamba, reference compound]
Herbicidal action against ECHCG found ([8]; I.14 1.95 g/ha and/or b13.2 125 g/ha): 0%
Herbicidal action against ECHCG found ([8]; I.14 3.91 g/ha and/or b13.2 250 g/ha): 30%

CNC.O=C(O)COc1ccc(Cl)cc1Cl [b13.3, 2,4-D dimethylammonium salt, reference compound]
Herbicidal action against BRAPL found [5, 18]: 20%
Herbicidal action against BRAPL found [5, 19]: 50%
Herbicidal action against ABUTH found [2, 18]: 25%
Herbicidal action against ABUTH found [2, 19]: 65%
